What was measured:
[1] = biological target: T1, Cystic fibrosis transmembrane conductance regulator (Homo sapiens, UniProt P13569); experiment: Activation of human wildtype CFTR
[2] = system: Mus musculus; experiment: (§1) In vivo activation CFTR expressed in wild-type CD1 mouse assessed as hyperpolarization of ocular surface by measuring potential difference at 1 to 10 uM; type: functional; conditions: dose 1-10 µM
[3] = biological target: T1, Cystic fibrosis transmembrane conductance regulator; experiment: Activation of human CFTR expressed in rat FRT cells; type: cell-based
[4] = as §1; type: functional; conditions: dose 1-10 µM
[5] = system: Cystic fibrosis transmembrane conductance regulator (Homo sapiens), P13569 [G551D]; experiment: Activation of CFTR G551D mutant (unknown origin); conditions: filed as opener
[6] = biological target: T1, Cystic fibrosis transmembrane conductance regulator; experiment: Activation of CFTR (unknown origin)
[7] = biological target: T1, Cystic fibrosis transmembrane conductance regulator; experiment: Activation of wildtype CFTR (unknown origin) expressed in CHO cells; type: cell-based
[8] = biological target: T1, Cystic fibrosis transmembrane conductance regulator; experiment: Activation of human wildtype CFTR expressed in rat FRT cells by patch clamp analysis; type: cell-based
[9] = biological target: T1, Cystic fibrosis transmembrane conductance regulator; experiment: Activation of wildtype CFTR in human Calu-3 cells; type: cell-based
[10] = biological target: T1, Cystic fibrosis transmembrane conductance regulator; experiment: Binding affinity at human wildtype CFTR assessed as inhibition constant by fluorescence based analysis

T1 sequence (P13569 whole entry): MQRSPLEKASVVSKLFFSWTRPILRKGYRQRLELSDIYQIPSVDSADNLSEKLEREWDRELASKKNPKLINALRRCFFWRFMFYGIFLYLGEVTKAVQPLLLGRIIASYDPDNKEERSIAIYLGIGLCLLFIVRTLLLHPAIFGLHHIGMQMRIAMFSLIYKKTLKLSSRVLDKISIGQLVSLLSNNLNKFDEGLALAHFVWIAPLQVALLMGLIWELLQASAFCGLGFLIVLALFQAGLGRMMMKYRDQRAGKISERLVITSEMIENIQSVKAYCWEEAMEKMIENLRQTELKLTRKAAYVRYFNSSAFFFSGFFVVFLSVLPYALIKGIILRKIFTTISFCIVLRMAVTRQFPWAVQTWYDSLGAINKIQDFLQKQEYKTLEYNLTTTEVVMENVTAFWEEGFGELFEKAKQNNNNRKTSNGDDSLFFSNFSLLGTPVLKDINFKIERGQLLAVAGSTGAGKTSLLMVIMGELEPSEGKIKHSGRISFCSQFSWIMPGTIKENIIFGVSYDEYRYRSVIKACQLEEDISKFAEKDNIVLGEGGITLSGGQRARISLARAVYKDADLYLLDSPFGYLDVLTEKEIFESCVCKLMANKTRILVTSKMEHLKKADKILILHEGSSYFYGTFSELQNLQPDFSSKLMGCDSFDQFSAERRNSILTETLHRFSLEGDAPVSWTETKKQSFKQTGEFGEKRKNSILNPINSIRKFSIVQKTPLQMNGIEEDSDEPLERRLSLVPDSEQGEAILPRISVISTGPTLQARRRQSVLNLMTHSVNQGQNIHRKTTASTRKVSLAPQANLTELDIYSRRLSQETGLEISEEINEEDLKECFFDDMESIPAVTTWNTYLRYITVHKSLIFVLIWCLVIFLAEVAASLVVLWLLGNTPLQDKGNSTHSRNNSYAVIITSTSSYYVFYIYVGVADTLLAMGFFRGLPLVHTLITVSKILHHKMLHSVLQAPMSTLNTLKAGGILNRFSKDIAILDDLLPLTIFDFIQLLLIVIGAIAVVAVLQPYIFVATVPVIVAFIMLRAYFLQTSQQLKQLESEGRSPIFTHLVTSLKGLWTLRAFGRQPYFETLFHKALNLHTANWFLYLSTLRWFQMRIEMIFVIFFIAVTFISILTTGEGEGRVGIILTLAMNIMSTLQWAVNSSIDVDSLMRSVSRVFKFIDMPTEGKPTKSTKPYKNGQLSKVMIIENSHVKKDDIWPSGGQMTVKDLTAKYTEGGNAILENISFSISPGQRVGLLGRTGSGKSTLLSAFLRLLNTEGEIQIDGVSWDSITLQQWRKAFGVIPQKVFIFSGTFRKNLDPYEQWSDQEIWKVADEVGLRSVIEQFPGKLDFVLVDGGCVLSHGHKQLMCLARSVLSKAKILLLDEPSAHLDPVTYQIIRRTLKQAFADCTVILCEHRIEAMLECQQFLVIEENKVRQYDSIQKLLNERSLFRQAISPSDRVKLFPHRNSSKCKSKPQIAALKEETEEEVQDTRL
Sequence of Cystic fibrosis transmembrane conductance regulator (Homo sapiens), P13569 [G551D] (P13569 whole entry G551D): as the sequence (P13569 whole entry) above, with G551D counted along it

**Q.** Which EC50 [1] does the source give for `CNc1nc(Nc2ccccc2)nc(OCC(F)(F)C(F)F)n1` here?
**A.** ~30 nM

**Q.** With `CC(C)(C)c1cc(C(C)(C)C)c(NC(=O)c2c[nH]c3ccccc3c2=O)cc1O` as the compound, how does the Activity [2] read?
**A.** -1.8 mV

**Q.** Which EC50 [3] does the source give for `COc1ccccc1CC(=O)Nc1nnc(Cc2ccc(OC)c(OC)c2)s1` here?
**A.** 340 nM

**Q.** What about the Activity [4] of the same compound?
**A.** -9.9 mV

**Q.** For `CCCCc1c(-c2ccc(O)cc2)[nH]c2nccnc12`, which Activity [5] is on record?
**A.** 1.5 nM

**Q.** Which EC50 [6] does the source give for `CC(C)c1ccc(NC(=O)[C@H](c2ccccc2)N(C)C(=O)Cc2c[nH]c3ccccc23)cc1` here?
**A.** 70 nM

**Q.** Which EC50 [3] does the source give for `COc1ccc(Cc2nnc(NC(=O)Cc3c(F)cccc3Cl)s2)cc1OC` here?
**A.** 571 nM

**Q.** And the Activity [4]?
**A.** -3.1 mV

**Q.** What does the source list for `CC/N=C1\S/C(=C\c2ccc3c(c2)OCO3)C(=O)N1CC`?
**A.** EC50 [3]: 2000 nM; Activity [4]: -2.5 mV

**Q.** For `CCOc1ccccc1CC(=O)Nc1nnc(Cc2ccc(OC)c(OC)c2)s1`, which EC50 [3] is on record?
**A.** 377 nM

**Q.** And the Activity [4]?
**A.** -3.4 mV

**Q.** Which EC50 [7] does the source give for `CCCn1cnc2c1N=CN1C2=N[C@](C)(C(=O)O)[C@H](O)[C@@]1(C)O` here?
**A.** 2900 nM

**Q.** For `Nc1ccc([N+](=O)[O-])cc1-c1nc2ccccc2n(Cc2ccccc2)c1=O`, which EC50 [3] is on record?
**A.** 138 nM

**Q.** And the Activity [4]?
**A.** -9.1 mV

**Q.** And the EC50 [8]?
**A.** ~200 nM

**Q.** For `CNc1nc(Nc2ccc([N+](=O)[O-])cc2)nc(OCC(F)(F)C(F)F)n1`, which Activity [4] is on record?
**A.** -10 mV

**Q.** With `CCN(CC)c1nc(Nc2ccccc2)nc(OC(C(F)(F)F)C(F)(F)F)n1` as the compound, how does the Activity [4] read?
**A.** -8.5 mV

**Q.** Which EC50 [9] does the source give for `CC(C)Cn1c(=O)c2[nH]cnc2n(C)c1=O` here?
**A.** 100000 nM

**Q.** With `O=c1cc(-c2ccncc2)oc2c1cc(-c1ccco1)c1ccccc12` as the compound, how does the Ki [10] read?
**A.** 1700 nM

**Q.** For `CCCn1cnc2c1N=CN1C2=N[C@](C)(C(=O)O)[C@@H](O)[C@@]1(C)O`, which EC50 [7] is on record?
**A.** 2100 nM

**Q.** For `O=C(c1cccs1)N1N=C(c2ccccc2)CC1c1ccccc1[N+](=O)[O-]` (stereo unspecified), which EC50 [3] is on record?
**A.** 385 nM

**Q.** What about the Activity [4] of the same compound?
**A.** -4.1 mV

**Q.** With `CC(C)Cn1c(=O)n(C)c(=O)c2[nH]cnc21` [ISOBUTYLMETHYLXANTHINE] as the compound, how does the EC50 [9] read?
**A.** 45000 nM

**Q.** Which results are given for `COc1ccc(Cc2nnc(NC(=O)Cc3cccs3)s2)cc1OC`?
**A.** EC50 [3]: 685 nM; Activity [4]: -2.5 mV

**Q.** What does the source list for `Cc1cc(C)cc(/N=C2/NC(=O)/C(=C/c3ccc(O)cc3)S2)c1`?
**A.** EC50 [3]: 332 nM; Activity [4]: -8.6 mV

**Q.** Which EC50 [3] does the source give for `CNc1nc(Nc2cccc([N+](=O)[O-])c2)nc(OCC(F)(F)F)n1` here?
**A.** 400 nM

**Q.** And the Activity [4]?
**A.** -7.4 mV

**Q.** Which Ki [10] does the source give for `O=c1cc(-c2ccc(O)cc2)oc2cc(O)cc(O)c12` [APIGENIN] here?
**A.** 4800 nM

Source: ChEMBL document CHEMBL5356990, “Overview of CFTR activators and their recent studies for dry eye disease: a review” (RSC Med Chem, 2023)
